Each structure is given as a SMILES string.

Broadly, the IC50 is the concentration that inhibits the measured activity by half. Low values mean greater potency, high ones weaker potency.

For this assay, the target named is T1, FGFR3 enzyme (Millipore) (Homo sapiens, UniProt P22607).
T1 construct: purchased Millipore
T1 sequence (P22607 23-806): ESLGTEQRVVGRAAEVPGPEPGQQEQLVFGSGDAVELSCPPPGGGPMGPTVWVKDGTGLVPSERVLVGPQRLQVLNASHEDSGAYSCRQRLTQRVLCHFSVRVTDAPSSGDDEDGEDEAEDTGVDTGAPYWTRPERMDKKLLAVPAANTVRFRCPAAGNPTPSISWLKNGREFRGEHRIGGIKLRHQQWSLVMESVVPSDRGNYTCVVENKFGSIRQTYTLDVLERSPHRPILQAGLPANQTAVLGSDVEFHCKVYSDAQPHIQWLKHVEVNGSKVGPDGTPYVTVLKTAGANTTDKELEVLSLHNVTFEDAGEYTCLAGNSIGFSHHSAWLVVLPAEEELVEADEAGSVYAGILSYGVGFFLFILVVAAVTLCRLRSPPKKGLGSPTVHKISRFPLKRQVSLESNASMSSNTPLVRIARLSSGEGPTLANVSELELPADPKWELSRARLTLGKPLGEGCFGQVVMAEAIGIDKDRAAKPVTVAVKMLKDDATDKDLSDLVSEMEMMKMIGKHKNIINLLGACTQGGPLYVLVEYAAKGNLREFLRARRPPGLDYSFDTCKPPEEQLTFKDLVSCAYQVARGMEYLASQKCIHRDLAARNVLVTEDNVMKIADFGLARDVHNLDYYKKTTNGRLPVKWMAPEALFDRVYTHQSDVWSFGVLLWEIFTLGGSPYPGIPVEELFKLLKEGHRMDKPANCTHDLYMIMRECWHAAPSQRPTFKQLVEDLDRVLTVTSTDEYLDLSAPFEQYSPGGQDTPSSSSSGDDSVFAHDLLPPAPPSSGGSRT
Briefly: FGFR Enzymatic Assay (peptide phosphorylation, FRET). The assay is classed as biochemical. The settings on record: pre-incubated for 4 hours; ATP 140 μM, peptide 500 nM. The protocol: The inhibitor potency of the exemplified compounds was measured in an enzyme assay that measures peptide phosphorylation using FRET measurements to detect product formation. Inhibitors were serially diluted in DMSO and a volume of 0.5 μL was transferred to the wells of a 384-well plate. For FGFR3, a 10 μL volume of FGFR3 enzyme (Millipore) diluted in assay buffer (50 mM HEPES, 10 mM MgCl2, 1 mM EGTA, 0.01% Tween-20, 5 mM DTT, pH 7.5) was added to the plate and pre-incubated for a time between 5-10 minutes and up to 4 hours. Appropriate controls (enzyme blank and enzyme with no inhibitor) were included on the plate. The assay was initiated by the addition of a 10 μL solution containing biotinylated EQEDEPEGDYFEWLE peptide substrate (SEQ ID NO: 1) and ATP (final concentrations of 500 nM and 140 μM respectively) in assay buffer to the wells. The plate was incubated at 25° C. for 1 hr. The reactions were ended with the addition of 10 μL/well of quench solution (50 mM Tris, 150 mM NaCl, 0.5 mg/mL BSA, pH 7.8; 30 mM EDTA with Perkin Elmer Lance Reagents at 3.75 nM Eu-antibody PY20 and 180 nM APC-Streptavidin). The plate was allowed to equilibrate for ˜1 hr before scanning the wells on a PheraStar plate reader (BMG Labtech).
GraphPad prism3 was used to analyze the data. The IC50 values were derived by fitting the data to the equation for a sigmoidal dose-response with a variable slope. Y=Bottom+(Top-Bottom)/(1+10^((Log IC50−X)*HillSlope)) where X is the logarithm of concentration and Y is the response.
Table 1 provides IC50 data for compounds of the invention assayed in the FGFR Enzymatic Assay after dilution in assay buffer, added to the plate and pre-incubated for 4 hours.
With `COc1cc2[nH]nc(-c3ccc(N4CCN(C)CC4)nc3)c2cc1C(=O)Nc1c(C)cccc1C` [Example 26, N-(2,6-Dimethylphenyl)-6-methoxy-3-(6-(4-methylpiperazin-1-yl)pyridin-3-yl)-1H-indazole-5-carboxamide], the IC50 is less than 10 nM. To `COc1cc2[nH]nc(-c3cnn(C)c3)c2cc1C(=O)Nc1c(C)cc(NS(C)(=O)=O)cc1C` [Example 27, N-(2,6-Dimethyl-4-(methylsulfonamido)phenyl)-6-methoxy-3-(1-methyl-1H-pyrazol-4-yl)-1H-indazole-5-carboxamide] belongs 10 to 30 nM; to `COc1cc2[nH]nc(-c3cnn(C)c3)c2cc1C(=O)Nc1c(C)cc(NC(C)=O)cc1C` [Example 28, N-(4-Acetamido-2,6-dimethylphenyl)-6-methoxy-3-(1-methyl-1H-pyrazol-4-yl)-1H-indazole-5-carboxamide], 30 to 200 nM. `COc1cc2[nH]nc(-c3cnn(C)c3)c2cc1C(=O)Nc1c(C)cc(N(C)C)cc1C` [Example 29, N-(4-(Dimethylamino)-2,6-dimethylphenyl)-6-methoxy-3-(1-methyl-1H-pyrazol-4-yl)-1H-indazole-5-carboxamide] came in with an IC50 of 30 to 200 nM. With `CCNC(=O)N1CC(n2cc(-c3n[nH]c4cc(OC)c(C(=O)Nc5c(C)cccc5C)cc34)cn2)C1` [Example 30, N-(2,6-Dimethylphenyl)-3-(1-(1-(ethylcarbamoyl)azetidin-3-yl)-1H-pyrazol-4-yl)-6-methoxy-1H-indazole-5-carboxamide] the figure was less than 10 nM; with `COC(=O)N1CC(n2cc(-c3n[nH]c4cc(OC)c(C(=O)Nc5c(C)cccc5C)cc34)cn2)C1` [Example 31, Methyl 3-(4-(5-((2,6-dimethylphenyl)carbamoyl)-6-methoxy-1H-indazol-3-yl)-1H-pyrazol-1-yl)azetidine-1-carboxylate], less than 10 nM. In turn, `COc1cc2[nH]nc(-c3cnn(C4CN(S(C)(=O)=O)C4)c3)c2cc1C(=O)Nc1c(C)cccc1C` [Example 32, N-(2,6-Dimethylphenyl)-6-methoxy-3-(1-(1-(methylsulfonyl)azetidin-3-yl)-1H-pyrazol-4-yl)-1H-indazole-5-carboxamide] displayed an IC50 of less than 10 nM. `COc1cc2[nH]nc(-c3cnn(C4CN(C(C)=O)C4)c3)c2cc1C(=O)Nc1c(C)cccc1C` [Example 33, 3-(1-(1-Acetylazetidin-3-yl)-1H-pyrazol-4-yl)-N-(2,6-dimethylphenyl)-6-methoxy-1H-indazole-5-carboxamide] gave an IC50 of less than 10 nM.

In turn, `COc1cc2[nH]nc(-c3cnn(C4CCN(C)CC4)c3)c2cc1C(=O)Nc1c(C)cccc1C` [Example 34, N-(2,6-Dimethylphenyl)-6-methoxy-3-(1-(1-methylpiperidin-4-yl)-1H-pyrazol-4-yl)-1H-indazole-5-carboxamide] displayed an IC50 of less than 10 nM. Compound `COc1cc2[nH]nc(-c3cnn(C4CCOCC4)c3)c2cc1C(=O)Nc1c(C)cccc1C` [Example 35, N-(2,6-Dimethylphenyl)-6-methoxy-3-(1-(tetrahydro-2H-pyran-4-yl)-1H-pyrazol-4-yl)-1H-indazole-5-carboxamide] had an IC50 of less than 10 nM. With `COc1cc2[nH]nc(-c3cnn(C4CCOC4)c3)c2cc1C(=O)Nc1c(C)cccc1C` (centres unmarked) [Example 36, N-(2,6-Dimethylphenyl)-6-methoxy-3-(1-(tetrahydrofuran-3-yl)-1H-pyrazol-4-yl)-1H-indazole-5-carboxamide], the IC50 is less than 10 nM. With `COc1cc2[nH]nc(-c3cnn(Cc4ccccn4)c3)c2cc1C(=O)Nc1c(C)cccc1C` [Example 37, N-(2,6-Dimethylphenyl)-6-methoxy-3-(1-(pyridin-2-ylmethyl)-1H-pyrazol-4-yl)-1H-indazole-5-carboxamide] the figure was less than 10 nM; with `COc1cc2[nH]nc(-c3cnn(CCO)c3)c2cc1C(=O)Nc1c(C)cccc1C` [Example 38, N-(2,6-Dimethylphenyl)-3-(1-(2-hydroxyethyl)-1H-pyrazol-4-yl)-6-methoxy-1H-indazole-5-carboxamide], 10 to 30 nM. `COc1cc2[nH]nc(-c3cnn(CC4CCNCC4)c3)c2cc1C(=O)Nc1c(C)cccc1C` [Example 39, N-(2,6-Dimethylphenyl)-6-methoxy-3-(1-(piperidin-4-ylmethyl)-1H-pyrazol-4-yl)-1H-indazole-5-carboxamide]: the IC50 is 10 to 30 nM.

For `COc1cc2[nH]nc(-c3cnn(CCN4CCOCC4)c3)c2cc1C(=O)Nc1c(C)cccc1C` [Example 40, N-(2,6-Dimethylphenyl)-6-methoxy-3-(1-(2-morpholinoethyl)-1H-pyrazol-4-yl)-1H-indazole-5-carboxamide], the IC50 was in the range of 10 to 30 nM. With `COc1cc2[nH]nc(-c3cnn(Cc4cccnc4)c3)c2cc1C(=O)Nc1c(C)cccc1C` [Example 41, N-(2,6-Dimethylphenyl)-6-methoxy-3-(1-(pyridin-3-ylmethyl)-1H-pyrazol-4-yl)-1H-indazole-5-carboxamide] the figure was 10 to 30 nM; with `COc1cc2[nH]nc(-c3cnn(-c4ccccn4)c3)c2cc1C(=O)Nc1c(C)cccc1C` [Example 42, N-(2,6-Dimethylphenyl)-6-methoxy-3-(1-(pyridin-2-yl)-1H-pyrazol-4-yl)-1H-indazole-5-carboxamide], 30 to 200 nM.

`COc1cc2[nH]nc(-c3cnn(C4CCC4)c3)c2cc1C(=O)Nc1c(C)cccc1C` [Example 43, 3-(1-Cyclobutyl-1H-pyrazol-4-yl)-N-(2,6-dimethylphenyl)-6-methoxy-1H-indazole-5-carboxamide] gave an IC50 of less than 10 nM.

`COc1cc2[nH]nc(-c3cnn(C4CC4)c3)c2cc1C(=O)Nc1c(C)cccc1C` [Example 44, 3-(1-Cyclopropyl-1H-pyrazol-4-yl)-N-(2,6-dimethylphenyl)-6-methoxy-1H-indazole-5-carboxamide]: the IC50 is less than 10 nM. In the case of `CCCn1cc(-c2n[nH]c3cc(OC)c(C(=O)Nc4c(C)cccc4C)cc23)cn1` [Example 45, N-(2,6-Dimethylphenyl)-6-methoxy-3-(1-propyl-1H-pyrazol-4-yl)-1H-indazole-5-carboxamide], the IC50 was less than 10 nM.

For the origin of these results see US12122767B2, “Bicyclic heterocycles as FGFR inhibitors” (Incyte Corporation, priority 2019, dated 2024).
